Structures can show the parent of a compound that is named as a salt.
Legend:
Test in all cases: Soft agar colony formation disk diffusion assay
HT29 = assay type: cell-based, human
Source text: A more elaborate version of this fundamental assay, the soft agar colony formation disk diffusion assay was used. […] The effect of the test drug against tumoral cells could be measured by its inhibitory capacity against colony formation after the delivery of the compound, in different concentrations on an filter disk(4). A modified technique of this assay was used in order to investigate the antiproliferative activity of candidate compounds. Tumoral cells from solid tumors and ascitic lines were plated separately in a two layer agar matrix. Cell lines to be tested were suspended in an upper layer of 0.4% Noble agar (Difco#00142-01) in RPMI-1066 (Gibco#3201875) at a yield varying between 10^4 to 2×10^5 cells per 60 mm Petri dish. Plating efficiency was determined for each line in order to achieve an optimal number of colonies per dish. […] The bottom layer consisted of 0.8% Noble agar, 0.8% Tryptic Soy Broth (difco#0037001)in CMRL-1066/Fischer's. The bottom layers were used within 2 and 9 days of preparation. Plated dishes (bottom layer of agar, upper layer of cells and administered drug were incubated in humidified atmosphere at 37° C., 5% CO2 for 10-20 days depending upon the time necessary to observe adequate colonies (defined as a cell aggregate of more than 50 cells) both control and drug inhibited. Drugs were administered on a paper filter disk (Whatman No. 1) of 6.5 mm diameter placed on the upper layer at 1/3 distance from the edge of the dish. The anti-clonogenic activity of the compounds was measured as the zone of inhibition from the disk edge to the most proximal colonies. This zone of inhibition was checked on an inverted microscope (40×) and was measured with a micrometer mounted in the eyepiece. The ocular micrometer was calibrated with a stage micrometer set for a particular combination of ocular and objective lenses. […] We made a modification of the initial technique by not plating a solid tumor and a leukemia simultaneously in the same Petri dish. […] HUMAN TUMORS. […] LS180 (13) and BE1(14) were obtained from the Oncology Dept. of the Montreal General Hospital. […] Cell lines were routinely passaged twice a week by trypsinization and maintained in 25, or 75-sq. cm Falcon Plastic flasks at 37° C., 5% CO2 in humidified atmosphere. Both compounds were dissolved in DMSO (1 mg/100 ul) and brought to final volume (250 ul) with Millipore deionized sterile water. Further dilutions were made with […] volume of 25 ul of freshly prepared solution was placed on the filter disk and allowed to dry.

P388 = assay type: cell-based, murine
Source text: (§1) A more elaborate version of this fundamental assay, the soft agar colony formation disk diffusion assay was used. This assay defines the relative activity of one particular drug versus a tumoral cell line type. The effect of the test drug against tumoral cells could be measured by its inhibitory capacity against colony formation after the delivery of the compound, in different concentrations on an filter disk(4). A modified technique of this assay was used in order to investigate the antiproliferative activity of candidate compounds. Tumoral cells from solid tumors and ascitic lines were plated separately in a two layer agar matrix. Cell lines to be tested were suspended in an upper layer of 0.4% Noble agar (Difco#00142-01) in RPMI-1066 (Gibco#3201875) at a yield varying between 10^4 to 2×10^5 cells per 60 mm Petri dish. Plating efficiency was determined for each line in order to achieve an optimal number of colonies per dish. Plates were examined before drug administration to confirm a uniform dispersion of single cells. The bottom layer consisted of 0.8% Noble agar, 0.8% Tryptic Soy Broth (difco#0037001)in CMRL-1066/Fischer's. The bottom layers were used within 2 and 9 days of preparation. Plated dishes (bottom layer of agar, upper layer of cells and administered drug were incubated in humidified atmosphere at 37° C., 5% CO2 for 10-20 days depending upon the time necessary to observe adequate colonies (defined as a cell aggregate of more than 50 cells) both control and drug inhibited. Drugs were administered on a paper filter disk (Whatman No. 1) of 6.5 mm diameter placed on the upper layer at 1/3 distance from the edge of the dish. The anti-clonogenic activity of the compounds was measured as the zone of inhibition from the disk edge to the most proximal colonies. This zone of inhibition was checked on an inverted microscope (40×) and was measured with a micrometer mounted in the eyepiece. The ocular micrometer was calibrated with a stage micrometer set for a particular combination of ocular and objective lenses. […] We made a modification of the initial technique by not plating a solid tumor and a leukemia simultaneously in the same Petri dish. Anti-clonogenic tests performed on leukemia cell line have helped in the discovery of the majority of current clinically used cytostatic drugs. Our tests on solid tumor lines (animal or human) may help define active compounds with solid tumor specificity. […] Murine tumors were maintained IN VIVO in order to diminish the selection of subpopulations of cells normally present in the heterogenous IN VIVO tumor. The actual drug sensitivity assay was done IN VITRO. For these experiments cells from freshly excised tumors or from ascitic fluids were maintained in RPMI-1066. Both compounds were dissolved in DMSO (1 mg/100 ul) and brought to final volume (250 ul) with Millipore deionized sterile water. Further dilutions were made with […] volume of 25 ul of freshly prepared solution was placed on the filter disk and allowed to dry.

M5076 = assay type: cell-based, murine
Source text: as §1

P388/ADR = assay type: cell-based, murine
Source text: as §1

B16 = assay type: cell-based, murine
Source text: as §1

LL = assay type: cell-based, murine
Source text: as §1

Molecule	zone of inhibition (HT29; 10 μg/DISK) [Zone Units]	zone of inhibition (HT29; 100 μg/DISK) [Zone Units]	zone of inhibition (P388; 10 μg/DISK) [Zone Units]	zone of inhibition (P388; 100 μg/DISK) [Zone Units]	zone of inhibition (M5076; 10 μg/DISK) [Zone Units]	zone of inhibition (M5076; 100 μg/DISK) [Zone Units]	zone of inhibition (P388/ADR; 10 μg/DISK) [Zone Units]	zone of inhibition (P388/ADR; 100 μg/DISK) [Zone Units]	zone of inhibition (B16; 10 μg/DISK) [Zone Units]	zone of inhibition (B16; 100 μg/DISK) [Zone Units]	zone of inhibition (LL; 100 μg/DISK) [Zone Units]	zone of inhibition (LL; 10 μg/DISK) [Zone Units]
3-(2-acetoxy-1-propeneketal)aceto-6-acetoxy-1-hydroxy-1,2,3,4-tetrahydro-(2-oxygen)naphtacene-5,12-dione and 3-(2-acetoxy-1-propeneketal)-aceto-11-acetoxy-1-hydroxy-1,2,3,4-tetrahydro-(2-oxygen)naphtacene-5,12-dione [BCH-710]	30.0 ± 8.4	69.0 ± 30.0	13.0 ± 0.0	326.5 ± 43.1	209.5 ± 21.9	533.0 ± 20.0	0	110.0 ± 0.0	21.0 ± 2.1	21.0 ± 2.1	–	–
3-(2-hydroxy)aceto-6-hydroxy-1,2,3,4-tetrahydro-(2-oxygen)naphthacene-5,12-dione and 3-(2-hydroxy)aceto-11-hydroxy-1,2,3,4-tetrahydro-(2-oxygen)naphthacene-5,12-dione [BCH-694]	30.5 ± 8.6	143.3 ± 30.1	67.1 ± 8.6	115.9 ± 94.8	27.4 ± 4.3	137.2 ± 99.2	6.1 ± 8.6	39.6 ± 12.9	0	128.0 ± 26.0	30.5 ± 8.6	–
3-Carbomethoxy-1,11-dihydroxy-1,2,3,4-tetrahydro-(2-oxygen)naphthacene-5,12-dione 3-Carbomethoxy-1,6-dihydroxy-1,2,3,4-tetrahydro-(2-oxygen)naphthacene-5,12-dione [BCH-711]	27.0 ± 4.2	91.5 ± 43.1	45.5 ± 21.9	183.0 ± 0.0	55.0 ± 8.4	198.0 ± 21.2	40.0 ± 20.0	150.0 ± 30.0	27.0 ± 4.2	137.0 ± 21.2	–	–
COC(=O)[C@@H]1CC2=C(C(=O)c3c(c(OC)c4ccccc4c3O)C2=O)[C@@H](O[C@H]2C[C@H](NC(=O)C(F)(F)F)[C@H](O)[C@H](C)O2)O1 (mixture of isomers) [BCH-674, (1'S,1S,3R) and 1'S,1R,3S) Methyl(11-hydroxy-6-methoxy-1-[2',3',6'-trideoxy-3-trifluoroacetamido-4'-hydroxy-L-lyxohexopyranose]-5,12-dioxo-3,4,5,12-tetrahydroanthra-ceno[2,3-c]pyran-3-yl) formate]	122.2 ± 80.6	36.6 ± 17.2	30.5 ± 25.8	137.2 ± 38.8	–	–	0	150.0 ± 8.0	91.5 ± 60.3	122.0 ± 86.2	115.9 ± 8.0	54.9 ± 8.6
CCOC(=O)[C@@H]1CC2=C(C(=O)c3cc4ccccc4c(O)c3C2=O)[C@@H](O[C@H]2C[C@H](NC(=O)C(F)(F)F)[C@H](O)[C@H](C)O2)O1 [BCH-681, (1'S,1R,3S)Ethyl[6-hydroxy-5,12-dioxo-1-(3'-trifuloroacetamido-1-daunosaminyl)-3,4,5,12-tetrahydroanthraceno(2,3-C)pyran-3-yl]formate]	106.7 ± 21.5	213.5 ± 43.1	–	–	–	–	–	–	–	–	–	–
CCOC(=O)[C@H]1CC2=C(C(=O)c3cc4ccccc4c(O)c3C2=O)[C@H](O[C@H]2C[C@H](NC(=O)C(F)(F)F)[C@H](O)[C@H](C)O2)O1 [BCH-684, (1'S,1S,3R)Ethyl[6-hydroxy-5,12-dioxo-1-(3'-trifluoroacetamido-1-daunosaminyl)-3,4,5,12-tetrahydroanthraceno(2,3-C)pyran-3-yl]formate]	137.2 ± 21.5	170.8 ± 86.2	–	–	–	–	–	–	–	–	–	–
CC(=O)Oc1c2c(c(O)c3ccccc13)C(=O)C1=C(C2=O)C(O)OC(C(C)=O)C1 (centres unmarked) [BCH-704, Methyl(11-acetoxy-1,6-dihydroxy-5,12-dioxo-3,4,5,12-tetrahydroanthraceno[2,3-c]pyran-3-yl)ketone]	39.6 ± 12.9	152.5 ± 43.1	–	–	–	–	–	–	–	–	–	–
C=CC1CC2=C(C(=O)c3cc4ccccc4c(O)c3C2=O)C(OC)O1 (centres unmarked) [BCH-712, 6-hydroxy-1-methoxy-1,2,3,4-tetrahydro-3-vinyl-(2-oxygen) naphthacene-5,12-dione]	0	55.0 ± 8.4	6.1 ± 0.0	70.0 ± 21.2	0	158.0 ± 34.6	0	42.5 ± 9.1	0	27.0 ± 4.2	–	–
CCOC(=O)C1Cc2c(c(OC)c3c(c2OC)C(=O)c2ccccc2C3=O)CS1 (centres unmarked) [BCH-717]	0	0	0	122.0 ± 0.0	18.3	39.5 ± 30.4	0	0	0	106.0 ± 64.3	–	–
CC(=O)Oc1c2c(c(O)c3ccccc13)C(=O)C1=C(CC(C(C)=O)OC1)C2=O (centres unmarked) [BCH-721]	55.5 ± 8.0	121.5 ± 43.1	45.5 ± 21.9	137.0 ± 21.2	78.0 ± 18.3	259.0 ± 21.2	21.0 ± 21.2	183.0 ± 86.2	76.0 ± 21.2	198.0 ± 21.2	–	–
